Patent US11141464B2, “GLP-1 polypeptide having GLP-1 receptor agonist activity and use thereof” (Liu Jianning, priority 2018, dated 2021)
Where no end group is shown, it is not given here.

Assays:
[1] = target: dipeptidyl peptidase IV (DPP-IV) (Homo sapiens, UniProt P27487); settings: variants with the 8-position alanine replaced, compared with GLP-1 or its fragment; cited from earlier work
STZ rats = test: Efficacy study by subcutaneous administration in the experimental animal model of type 2 diabetes (STZ rats), blood glucose; assay type: in vivo, Male Wistar rats; settings: for Blood glucose concentration at 0 hour (mM, mean ± sem): 0 hour (start of experiment, time of injection)
Description: 1) The Experimental Animal Model of Type 2 Diabetes Male Wistar rats of approximately 200 grams were fasted overnight with free access to water. The rats were administered a single dose of streptozotocin (STZ) by intraperitoneal injection (ip) in an amount of 45 mg/Kg. Then, the rats were normally fed and tested for fasting blood glucose. […] 2) Experimental Method Forty-eight rats were randomly divided into 6 groups, with each of 8 rats. […] At 0 hour, the STZ rats were injected subcutaneously with different doses of drugs for test. At 3, 6, and 9 hours, blood samples were taken from the vein of the rats' tail. The blood samples were tested to provide the blood glucose concentrations of the rats.

[2] = tested on: patients with type 2 diabetes; settings: after 6 weeks of GLP-1 treatment; cited from earlier work

Sequence of dipeptidyl peptidase IV (DPP-IV) (P27487 whole entry, species assumed, the tested form may be a part): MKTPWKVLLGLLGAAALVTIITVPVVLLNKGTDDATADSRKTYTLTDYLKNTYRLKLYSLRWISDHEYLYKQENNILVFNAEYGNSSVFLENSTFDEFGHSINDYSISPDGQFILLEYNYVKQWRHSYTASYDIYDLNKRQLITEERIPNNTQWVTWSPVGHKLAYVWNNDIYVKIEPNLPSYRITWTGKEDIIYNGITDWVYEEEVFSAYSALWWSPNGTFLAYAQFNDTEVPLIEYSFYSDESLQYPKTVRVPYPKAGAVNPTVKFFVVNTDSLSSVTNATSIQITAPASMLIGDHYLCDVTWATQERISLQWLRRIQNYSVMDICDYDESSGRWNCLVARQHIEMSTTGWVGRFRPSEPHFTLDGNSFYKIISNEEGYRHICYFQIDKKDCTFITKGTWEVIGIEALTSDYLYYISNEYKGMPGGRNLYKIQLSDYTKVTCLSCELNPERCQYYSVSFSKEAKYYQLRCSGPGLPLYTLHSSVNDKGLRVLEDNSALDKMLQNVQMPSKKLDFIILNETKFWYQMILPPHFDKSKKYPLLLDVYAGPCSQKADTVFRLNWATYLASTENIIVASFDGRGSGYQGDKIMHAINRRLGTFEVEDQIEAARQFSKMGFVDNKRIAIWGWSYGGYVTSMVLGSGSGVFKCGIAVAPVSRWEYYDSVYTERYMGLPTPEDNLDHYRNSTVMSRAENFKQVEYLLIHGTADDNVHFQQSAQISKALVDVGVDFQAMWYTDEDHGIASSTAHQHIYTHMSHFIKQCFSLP

Gly^8-GLP-1 (HDEFERHGEGTFTSDVSSYLEGQAAKEFIAWLVKGRG; Glucagon-like peptide 1; UniProt P01275 92-128, looked up, variant A8G) [variant obtained by replacing the 8-position alanine of GLP-1 or a fragment thereof with glycine]
resistance to DPP-IV mediated degradation [1]: increased resistance

His-Gly-Glu-Gly-Thr-Phe-Pro-Ser-Asp-Val-Ser-Ser-Tyr-Leu-Glu-Gly-Gln-Ala-Ala-Lys-Glu-Phe-Ile-Ala-Trp-Leu-Val-Lys-Gly-Arg-NH2 (HGEGTFPSDVSSYLEGQAAKEFIAWLVKGR-NH2) [Gly^8-Pro^13-GLP-1(7-36)NH2, GLP-1 polypeptide with T13P mutation]
Blood glucose concentration at 0 hour (mM, mean ± sem) (STZ rats; 1 μg/kg subcutaneous): 27.4 ± 0.8 mM
Blood glucose concentration at 3 hour (mM, mean ± sem) (STZ rats; 1 μg/kg subcutaneous): 23.4 ± 1.1 mM
Blood glucose concentration at 6 hour (mM, mean ± sem) (STZ rats; 1 μg/kg subcutaneous): 19.5 ± 0.5 mM
Blood glucose concentration at 9 hour (mM, mean ± sem) (STZ rats; 1 μg/kg subcutaneous): 16.3 ± 0.7 mM
Blood glucose concentration at 0 hour (mM, mean ± sem) (STZ rats; 10 μg/kg subcutaneous): 24.0 ± 1.1 mM
Blood glucose concentration at 3 hour (mM, mean ± sem) (STZ rats; 10 μg/kg subcutaneous): 18.5 ± 0.9 mM
Blood glucose concentration at 6 hour (mM, mean ± sem) (STZ rats; 10 μg/kg subcutaneous): 14.5 ± 0.8 mM
Blood glucose concentration at 9 hour (mM, mean ± sem) (STZ rats; 10 μg/kg subcutaneous): 10.5 ± 0.6 mM
blood-glucose lowering effect compared with reference drugs (STZ rats; subcutaneous, comparison from the data of Table 1 (vs Liraglutide P<0.01)): significantly better than that of Liraglutide

Ser^8-GLP-1 (HDEFERHSEGTFTSDVSSYLEGQAAKEFIAWLVKGRG; Glucagon-like peptide 1; UniProt P01275 92-128, looked up, variant A8S) [variant obtained by replacing the 8-position alanine of GLP-1 or a fragment thereof with serine]
resistance to DPP-IV mediated degradation [1]: increased resistance

Thr^8-GLP-1 (HDEFERHTEGTFTSDVSSYLEGQAAKEFIAWLVKGRG; Glucagon-like peptide 1; UniProt P01275 92-128, looked up, variant A8T) [variant obtained by replacing the 8-position alanine of GLP-1 or a fragment thereof with threonine]
resistance to DPP-IV mediated degradation [1]: increased resistance

^1HDEFERHAEGTFTSDVSSYLEGQAAKEFIAWLVKGRG [GLP-1, Glucagon-like peptide-1, a polypeptide containing 37 amino acids]
average weight loss [2]: 1.9 kg
